Earlier results, collected in patent US6444676B1, “Use of PARP inhibitors in the treatment of glaucoma” (priority 1999, dated 2002).

How the values were obtained:
neuronal apoptosis = conditions: induced by various injuries including amino acid excitotoxicity
rat retina = conditions: at 3 mM or higher concentrations, administered via intracameral infusion

Compound | prevention of neuronal apoptosis (neuronal apoptosis) | ischemia/reperfusion damage and DNA fragmentation in rat retina (rat retina)
Oc1cccc2c(O)nccc12 [1,5-dihydroxyisoquinoline] | prevent neuronal apoptosis | 
NC(=O)c1cccc(N)c1 [3-aminobenzamide] | prevent neuronal apoptosis | reduce ischemia/reperfusion damage and DNA fragmentation
Nc1cccc2c(=O)[nH][nH]c(=O)c12 [3-aminophtalhydrazide] | prevent neuronal apoptosis | 
NC(=O)c1ccccc1 [benzamide] | prevent neuronal apoptosis | 
